How the values were obtained:
GFP-PKCγ = biological target: T1, GFP-PKCγ (Homo sapiens, UniProt P05129); test: PKCγ activity inhibitory action in TPA-treated COS7 cells expressing GFP-PKCγ (Western blotting for PKCγ and phosphorylated PKCγ); type: cell-based; conditions: treated with TPA and flavonoid, n=2 (Fig. 5)
T1 construct: expressed in transfected cells; host or cells: COS7 cells, electroporation, 48 h
Experimental: The PKCγ activity inhibitory action of various flavonoids was tested. Scutellarin (Scu), baicalin (Bai), luteolin (Lut), and apigenin (Api) were used as various flavonoids. A plasmid encoding GFP-PKCγ was introduced into COS7 cells by electroporation and cultured for 48 hours to express GFP-PKCγ. After treating the cells with TPA (12-O-Tetradecanoylphorbol-13-acetate, activator of PKCγ) and each flavonoid, the cells were ground and proteins were subjected to SDS-PAGE. Thereafter, Western blotting was performed for PKCγ and phosphorylated PKCγ (activated form).

[1] = system: affective disorder model mice (DGKβKO mice); test: elevated plus maze test (affective disorder evaluation system 1); type: in vivo; conditions: relative to that in the case of taking placebo; male affective disorder model mice aged 8-11 weeks, drinking water containing 600 mg/L of lithium for 10 consecutive days
Experimental: Mice in which DGKβ was knocked out (DGKβKO mice) were prepared as an affective disorder (mania) model. This model mice are not associated with dementia.
An elevated plus maze test was used. In an elevated plus maze, a passage with a wall (closed arm) and a passage without a wall (open arm) crossed each other in a cross shape, and normal mice (WT) were afraid of the open arm and stayed in the closed arm for a long time, while affective disorder model mice were less likely to feel anxiety and stayed in the open arm for a long time. Based on this, the ratio of the residence time in the open arm in the test time was used as an index of anxiety.
Male affective disorder model mice aged 8-11 weeks were allowed to freely drink water containing 600 mg/L of lithium for 10 consecutive days.
The affective disorder model mice orally administered with lithium were subjected to affective disorder evaluation system 1 (elevated plus maze test) to evaluate amelioration of affective disorder (mania).

O=C(O)[C@H]1O[C@@H](Oc2cc3oc(-c4ccccc4)cc(=O)c3c(O)c2O)[C@H](O)[C@@H](O)[C@@H]1O [baicalin]
PKCγ activity inhibitory action (GFP-PKCγ): observed

[Li] [lithium]
ratio of the residence time in the open arm [1]: about 30%

O=c1cc(-c2ccc(O)cc2)oc2cc(O)cc(O)c12 [apigenin]
PKCγ activity inhibitory action (GFP-PKCγ): observed

O=c1cc(-c2ccc(O)c(O)c2)oc2cc(O)cc(O)c12 [luteolin]
PKCγ activity inhibitory action (GFP-PKCγ): observed

Reference: patent EP4566600A1, “AFFECTIVE DISORDER AMELIORATING AGENT” (National University Corporation Kobe University, priority 2022, dated 2024)
